Data published in patent US20100233272A1 (priority 2007, published 2010).
≈ marks a conversion by molar mass, not a printed value.

Tests used:
[1] = in vitro dissolution test of solubility-improved forms in MFD solution (microcentrifuge); assay type: physicochemical; conditions: MFD solution (PBS pH 6.5, 0.5 wt % NaTC/POPC), 37° C., 1000 μgA/mL if all dissolved
Description: An in vitro dissolution test was used to determine the dissolution performance of the HPMCAS SDD. […] The test was run in duplicate. The test tubes were placed in a 37° c. temperature-controlled chamber, and an MFD solution consisting of 1.8 mL PBS at pH 6.5 and 290 mosm/kg, containing 7.3 mm sodium taurocholic acid and 1.4 mm of 1-palmitoyl-2-oleyl-sn-glycero-3-phosphocholine (0.5 wt % NaTC/POPC) was added to each tube. The samples were mixed with a vortex mixer for one minute, then centrifuged at 13,000 g and 37° C. for one minute. The resulting supernatant solution was then sampled and diluted 1:5 (by volume) with methanol and analyzed by high-performance liquid chromatography (HPLC). HPLC analysis was performed using a Zorbax SB-C8 column. The mobile phase consisted of 45% 5 mm triethanolamine, adjusted to pH 7.0, and 55% acetonitrile, with a flow rate of 1.5 mL/min. UV absorbance was measured at 254 nm. The contents of each tube were mixed on the vortex mixer and allowed to stand undisturbed at 37° C. until the next sample was taken. Samples were collected at 4, 10, 20, 40, 90, and 1200 minutes.
The concentrations of drug obtained in these samples were used to determine the maximum dissolved concentration of drug and the area under the concentration-versus-time curve during the initial 90 minutes (MDC90 and DAUC90, respectively). […]

[2] = in vitro membrane permeation test (maximum drug flux); assay type: physicochemical; conditions: MFD feed solution 1000 μg/mL, permeate 20 wt % decanol in decane, 37° C., fit 0 to 60 minutes
Description: The NP composition was evaluated in vitro using a membrane permeation test as follows. An Accurel® PP 1 E microporous polypropylene membrane was obtained from Membrana GmbH (Wuppertal, Germany). The membrane was washed in isopropyl alcohol and rinsed in methanol in a sonicating bath for one minute at ambient temperature, and then allowed to air dry at ambient temperature. The feed side of the membrane was then plasma-treated to render it hydrophilic by placing a sample of the membrane in a plasma chamber. The atmosphere of the plasma chamber was saturated with water vapor at a pressure of 550 mTorr. A plasma was then generated using radio frequency (RF) power inductively coupled into the chamber via annular electrodes at a power setting of 50 Watts for 45 seconds. The contact angle of a drop of water placed on the surface of the plasma-treated membrane was about 40°. […]
To form the feed solution, a 13.33 mg sample of the solid NP composition was weighed into the feed reservoir. […] Samples were then diluted in 250 μL IPA and analyzed using HPLC. […] UV absorbance was measured at 254 nm.
The maximum flux of drug across the membrane (in units of μg/cm^2-min) was determined by performing a least-squares fit to the concentration versus time data from 0 to 60 minutes to obtain the slope, multiplying the slope by the permeate volume (5 mL), and dividing by the membrane area (4.9 cm^2).

physchem = conditions: pH 7, aqueous buffer
[3] = GastroPlus (ACAT) simulation of absorption and pharmacokinetics; conditions: estimated based on clinical data
Description: GastroPlus™ is a computer program that simulates absorption and pharmacokinetics for orally dosed drugs.
GastroPlus™ was used to simulate the absorption and pharmacokinetics of the reference and test formulations.
The drug release profiles were used by the software to calculate the drug concentration in each compartment. The estimated human permeability data were computed using a modification of the human fasted log D absorption model to account for permeability. The model then calculated the fraction of the dose absorbed based on the ACAT model using drug concentration, permeability, surface area, and transit time in each compartment. Pharmacokinetic parameters, e.g. volume of distribution, clearance, and micro-constants were added to the software in the pharmacokinetic page, which enabled the software to calculate plasma concentration—time curves.
In the physiology page, a user-supplied physiology file was provided to the program as an input file, consisting of the following transit times for each compartment (hr): 0.1, 0.25, 0.5, 0.5, 1.0, 1.0, 1.0, 8.0, and 24.0 hr.
The model was used to evaluate the performance of the dosage forms of the invention.

DAUC90 (area under the concentration-versus-time curve during the initial 90 minutes) [1] [min*μgA/mL] | MDC90 (maximum dissolved concentration of drug during the initial 90 minutes) [1] [μgA/mL] | Maximum Drug Flux [2] [μg/cm^2-min] | solubility (physchem) [µg/mL] | human permeability (Peff) [3] [×10⁻⁶ cm/s] | SMILES
4100 | 60 | 1.0 |  |  | Cc1ccc(-c2cc(C(F)(F)F)nn2-c2ccc(S(N)(=O)=O)cc2)cc1 [Crystalline celecoxib, celecoxib]
 |  |  | 11.6 (≈ 30.4 µM) | 112.62 | Cc1ccc(-c2cc(C(F)(F)F)nn2-c2ccc(S(N)(=O)=O)cc2)cc1 [celecoxib]
